From patent US8454977B2, “Non-toxic biofilm inhibitor” (priority 2005, dated 2013)
“Also recorded” adds a separate entry of the source.

Legend:
[1] = system: biotinylated viable PAKwt cells; type: cell-based, Pseudomonas aeruginosa
[2] = system: biotinylated purified PAK pili
[3] = system: P. aeruginosa strain PAO; assay: Epifluorescence microscopy of cells bound to stainless steel, strain PAO; type: cell-based, Pseudomonas aeruginosa; conditions: PAK(128-144)ox 51 nM; PAK(134-140) 100 μg/ml; 60 min 37° C.
Protocol: (§1) FIG. 2. Epifluorescence microscopy of stainless steel after binding of P. aeruginosa strains PAK (panels a, b, and c), PAO (panels d, e, and f), K122-4 (panels g, h, and i), KB7 (panels j, k, and l), PAKNP (panels m, n, and o) and PAKMS591 (panels p, q, and r). Viable cells were allowed to incubate directly (panels a, d, g, j, m, and p) with a stainless steel grade 304 surface for 60 min at 37° C. and washed 5 times with 10 mM PBS pH 7.4 containing 0.05% BSA. The cells were then stained using acrydine orange and a 40× objective field was photographed with a Leitz Laborlux microscope equipped with epifluorescent illumination and a Wild automatic exposure 35 mm camera system. Note that bound Pseudomonas cells are stained orange while green fluorescence indicates non-specific interaction of the fluorochrome with the surface. P. aeruginosa strains PAK, PAO, K122-4, KB7, PAKNP, and PAKMS591 were incubated with the synthetic peptide PAK(128-144d)ox (panels b, e, h, k, n, and q respectively) or with synthetic peptide PAK(134-140) (panels c, f, i, l, o, and r respectively).
(§2) Stainless steel plates, prepared and utilized in bacterial binding studies as described above, were incubated in 1 mM Acridine Orange stain for one minute, and thoroughly rinsed with distilled water. […] Micrographs were recorded with Kodak Colormax 35 mm film, processed and digitally scanned immediately after film processing.

[4] = system: P. aeruginosa strain PAKNP; assay: Epifluorescence microscopy of cells bound to stainless steel, strain PAKNP; type: cell-based, Pseudomonas aeruginosa; conditions: 60 min 37° C.
Protocol: as §1, §2

[5] = system: P. aeruginosa strain KB7; assay: Epifluorescence microscopy of cells bound to stainless steel, strain KB7; type: cell-based, Pseudomonas aeruginosa; conditions: PAK(128-144)ox 51 nM; PAK(134-140) 100 μg/ml; 60 min 37° C.
Protocol: as §1, §2

[6] = system: P. aeruginosa strain K122-4; assay: Epifluorescence microscopy of cells bound to stainless steel, strain K122-4; type: cell-based, Pseudomonas aeruginosa; conditions: PAK(128-144)ox 51 nM; PAK(134-140) 100 μg/ml; 60 min 37° C.
Protocol: as §1, §2

[7] = system: P. aeruginosa strain PAK; assay: Epifluorescence microscopy of cells bound to stainless steel, strain PAK; type: cell-based, Pseudomonas aeruginosa; conditions: PAK(128-144)ox 51 nM; PAK(134-140) 100 μg/ml; 60 min 37° C.
Protocol: as §1, §2

[8] = system: P. aeruginosa strain PAKMS591; assay: Epifluorescence microscopy of cells bound to stainless steel, strain PAKMS591; type: cell-based, Pseudomonas aeruginosa; conditions: 60 min 37° C.
Protocol: as §1, §2

[9] = system: respiratory epithelial cells; conditions: Yu et al., 1996; cited from earlier work

Sequence of biotinylated purified PAK pili (P02973 7-150): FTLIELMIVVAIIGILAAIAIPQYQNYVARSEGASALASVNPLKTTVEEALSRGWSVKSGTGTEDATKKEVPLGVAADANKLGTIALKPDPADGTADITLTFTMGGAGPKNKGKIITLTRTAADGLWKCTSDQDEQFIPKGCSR

Row | Substance | effect of peptide on binding of biotinylated PAKwt cells to stainless steel [1] | effect of peptide on binding of biotinylated PAK pili to stainless steel [2] | effect on binding of strain PAO to stainless steel (microscopy) [3] | effect on binding of strain PAKNP (pilA-) to stainless steel (microscopy) [4] | effect on binding of strain KB7 to stainless steel (microscopy) [5] | effect on binding of strain K122-4 to stainless steel (microscopy) [6] | effect on binding of strain PAK to stainless steel (microscopy) [7] | Ki ([1]; read-out: apparent Ki of the peptide inhibition of PAKwt binding to steel) [nM] | Ki ([2]; read-out: apparent Ki of the peptide inhibition of PAK pilus binding to steel) [nM] | effect on binding of strain PAKMS591 (fliC-) to stainless steel (microscopy) [8] | affinity for epithelial cells / mucosal cell surface receptors [9]
1 | Ac-T-L-T-R-T-A-A-D-G-OH (Ac-TLTRTAADG-OH) [PAK(117-125)] | appears to enhance cell binding to steel rather than inhibiting | appears to enhance the binding of pili to steel rather than inhibiting | – | – | – | – | – | – | – | – | –
2 | Ac-KCTSDQDEQFIPKGCSK-OH (cysteine pairing not given here) [PAK(128-144)ox] | – | – | reduced the binding; also recorded: substantially inhibits; also recorded: effectively inhibits the adherence | did not reduce the binding; also recorded: had no effect | reduced the binding; also recorded: substantially inhibits; also recorded: effectively inhibits the adherence | reduced the binding; also recorded: substantially inhibits; also recorded: effectively inhibits the adherence | reduced the binding | ~4 | ~0.2 | reduced the binding; also recorded: inhibited the binding | –
3 | Ac-D-E-Q-F-I-P-K-amide (Ac-DEQFIPK-NH2) [PAK(134-140)] | do not inhibit cell binding; also recorded: did not inhibit | – | did not inhibit the binding; also recorded: minimal effect | did not inhibit the binding | did not inhibit the binding; also recorded: nor did it inhibit the binding; also recorded: minimal effect | did not inhibit the binding; also recorded: nor did it inhibit the binding; also recorded: minimal effect | did not inhibit the binding; also recorded: minimal effect | – | – | did not inhibit the binding | low affinity
4 | Ac-PQYQNYVARSEGASALASVNPLKTTVEEADP-OH [PAK(22-52)] | do not inhibit cell binding | do not inhibit the binding of pili | – | – | – | – | – | – | – | – | –
